According to patent publication US20230192617A1, “AZABICYCLIC(THIO)AMIDES AS FUNGICIDAL COMPOUNDS” (Bayer CropScience Aktiengesellschaft, priority 2020, published 2023):

Test: Measurement of Log P values by HPLC on reversed phase columns (EEC directive 79/831 Annex V.A8)
Type: physicochemical
Protocol: A-1.1. Measurement of Log P Values
Measurement of Log P values as provided herein was performed according to EEC directive 79/831 Annex V.A8 by HPLC (High Performance Liquid Chromatography) on reversed phase columns with the following methods:
^[a] Log P value is determined by measurement of LC-UV, in an acidic range, with 0.1% formic acid in water and acetonitrile as eluent (linear gradient from 10% acetonitrile to 95% acetonitrile).
^[b] Log P value is determined by measurement of LC-UV, in a neutral range, with 0.001 molar ammonium acetate solution in water and acetonitrile as eluent (linear gradient from 10% acetonitrile to 95% acetonitrile).
^[c] Log P value is determined by measurement of LC-UV, in an acidic range, with 0.1% phosphoric acid and acetonitrile as eluent (linear gradient from 10% acetonitrile to 95% acetonitrile).
If more than one Log P value is available within the same method, all the values are given and separated by “+”. […]

[1] = method [a]: LC-UV, acidic range, 0.1% formic acid in water and acetonitrile as eluent
[2] = method [b]: LC-UV, neutral range, 0.001 molar ammonium acetate solution in water and acetonitrile as eluent
[3] = reversed phase HPLC column, method [a]: LC-UV, acidic range, 0.1% formic acid in water and acetonitrile as eluent

Structure (SMILES)	chromatographic logP [1]	chromatographic logP [3]	further results
CCOC(=O)c1c(Oc2cccc(Cl)c2F)nnc2c1CCCC2 [1-26, ethyl 3-(3-chloro-2-fluoro-phenoxy)-5,6,7,8-tetrahydrocinnoline-4-carboxylate]	3.76	–	chromatographic logP [2]: 3.56
O=C(O)c1c(Oc2cccc(C(F)(F)F)c2)nnc2c1CCCC2 [1-31]	1.6	–	chromatographic logP [2]: 0.55
O=C(N/C=C/c1ccccc1)c1c(Oc2cccc(C(F)(F)F)c2)cnc2ccccc12 [I-217]	–	3.92	–
COC(=O)c1c(Oc2cccc(C(F)(F)F)c2)cnc2ccccc12 [1-13, methyl 3-(3-(trifluoromethyl)phenoxy)quinoline-4-carboxylate]	3.8	–	–
O=C(O)c1c(Oc2cccc(C(F)(F)F)c2)nnc2ccccc12 [1-01]	2.27	–	–
CCON(Cc1ccccc1)C(=O)c1c(Oc2cccc(C(F)(F)F)c2)nnc2ccccc12 [I-247]	–	4.24	–
O=C(O)c1c(Oc2cccc(C3CC3)c2F)nnc2c1CCCC2 [1-30]	–	1.72	chromatographic logP (reversed phase HPLC column, method [b]: LC-UV, neutral range, 0.001 molar ammonium acetate solution in water and acetonitrile as eluent): 0.6
O=C(O)c1c(Oc2cccc(Br)c2)nnc2ccccc12 [1-48]	–	2.2	–
O=C(O)c1c(Oc2cccc(C(F)(F)F)c2)nnc2cc(F)ccc12 [1-38]	–	2.62	–
N#Cc1cccc(Oc2nnc3ccccc3c2C(=O)O)c1 [1-10]	–	1.56	–
CCOC(=O)c1c(Oc2cccc(Cl)c2)nnc2c1CCCC2 [1-24]	–	3.72	–
O=C(O)c1c(Oc2cccc(Br)c2F)nnc2c1CCCC2 [1-27]	1.55	–	chromatographic logP [2]: 0.45
O=C(O)c1c(Oc2cccc(C3CC3)c2F)nnc2ccccc12 [1-18, 3-(3-cyclopropyl-2-fluoro-phenoxy)cinnoline-4-carboxylic acid]	2.23	–	–
O=C(O)c1c(Oc2cccc(C3CC3)c2)cnc2ccccc12 [1-45]	–	2.59	–
CC1(C)COc2c(nnc(Oc3cccc(C(F)(F)F)c3)c2C(=O)O)O1 [1-19]	–	1.82	–
CCOC(=O)c1c(Oc2cccc(C(F)(F)F)c2)nnc2cnccc12 [1-54]	–	3.51	–
CCOC(=O)c1c(Oc2cccc(Cl)c2F)nnc2c1CCC2 [1-40]	–	3.37	–

Structure (SMILES)	chromatographic logP [1]	chromatographic logP [3]	further results
CCOC(=O)c1c(Oc2cccc(Br)c2F)nnc2c1CCCC2 [1-21]	3.85	–	–
CON(CCc1ccc(Cl)cc1Cl)C(=O)c1c(Oc2cccc(C(F)(F)F)c2)nnc2ccccc12 [I-190]	–	5.03	–
O=C(O)c1c(Oc2cccc(Br)c2F)cnc2ccccc12 [1-39]	2.59	–	–
O=C(O)c1c(Oc2cccc(C(F)F)c2)cnc2ccccc12 [1-41]	2.1	–	–
CCOC(=O)c1c(Oc2cccc(C(F)(F)F)c2)nnc2cc(C)ccc12 [1-52]	–	4.38	–
O=C(O)c1c(Oc2cccc(Cl)c2)nnc2ccccc12 [1-03]	2.07	–	–
O=C(O)c1c(Oc2cccc(C3CC3)c2F)cnc2ccccc12 [1-51]	2.71	–	–
CCOC(=O)c1c(Oc2cccc(C3CC3)c2F)nnc2c1CCCC2 [1-25]	–	3.79	–
O=C(O)c1c(Oc2cccc(C3CC3)c2)nnc2ccccc12 [1-36]	–	2.36	–
O=C(O)c1c(Oc2cccc(C(F)(F)F)c2)nnc2c1OCCO2 [1-17, 3-[3-(trifluoromethyl)phenoxy]-6,7-dihydro-[1,4]dioxino[2,3-c]pyridazine-4-carboxylic acid]	–	1.31	–
CCOC(=O)c1c(Oc2cccc(Br)c2F)nnc2ccccc12 [1-37]	–	4.02	–
Cc1ccc2c(C(=O)O)c(Oc3cccc(C(F)(F)F)c3)nnc2c1 [1-12, 7-methyl-3-(3-(trifluoromethyl)phenoxy)cinnoline-4-carboxylic acid]	–	2.74	–
CC1(C)CCc2c1nnc(Oc1cccc(C(F)(F)F)c1)c2C(=O)O [1-46]	–	2.49	–
CCOC(=O)c1c(Oc2cccc(C(F)(F)F)c2)nnc2ccccc12 [1-42]	–	3.95	–
O=C(O)c1c(Oc2cccc(Br)c2)cnc2ccccc12 [1-47]	–	2.48	–
O=C(O)c1c(Oc2cccc(Br)c2F)nnc2ccccc12 [1-35]	–	2.43	–
